Reference: EP0871764B1, “SCREENING METHOD” (Novartis AG, priority 1995, dated 1997)
pKd: −log10 of the molar value.

Molecular target: T1, RAC-PK PH domain (Homo sapiens, UniProt P31749)
T1 construct: pGEX-PH131 contains an in-frame fusion of amino acids 1-131 of human RAC-PKα with GST; GST (N, cleaved yes); made in house; host or cells: E. coli (JM109)
Assay: Quenching of the intrinsic Trp fluorescence of the PH domain by phospholipids and inositol phosphates
Assay type: binding
Details: calculated from reduction of 345nm fluorescence (excited at 290nm); 10mM Hepes/NaOH, pH 7.0, 10mM MgCl2, 25°C; read-out: Dissociation Constant
Protocol: Purified PH domain obtained according to Example 1 is incubated at a concentration of 1.4µM in 10mM Hepes/NaOH, pH 7.0, 10mM MgCl2, at 25°C.
Under the same conditions as Example 3, the RAC-PK PH domain is incubated in the presence of varying concentrations of phospholipids and inositol phosphates and fluorescence is measured. […]

T1 sequence (P31749 1-131): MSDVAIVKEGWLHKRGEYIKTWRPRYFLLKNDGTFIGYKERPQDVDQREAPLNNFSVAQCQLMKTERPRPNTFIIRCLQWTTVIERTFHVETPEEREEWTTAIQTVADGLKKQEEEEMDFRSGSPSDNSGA

Molecule: O=P(O)(O)OC1C(O)C(O)C(O)C(O)C1O (centres unmarked) [Ins (1) monophosphate]
- pKd: 5.15

Molecule: O=P(O)(O)OC1C(O)C(O)C(OP(=O)(O)O)C(O)C1O (centres unmarked) [Ins (1,4) bisphosphate]
- pKd: 6.05

Molecule: O=P(O)(O)OC1C(O)C(O)C(OP(=O)(O)O)C(OP(=O)(O)O)C1O (centres unmarked) [Ins (1,4,5) trisphosphate]
- pKd: 5.92

Molecule: O=P(O)(O)OC1C(O)C(O)C(O)C(O)C1O (centres unmarked) [Ins (2) monophosphate]
- pKd: 5.08

Molecule: Ptd-Ins (4,5)bisphosphate
- pKd: 6.40
